According to article PMC10819071, “SG-ATT: A Sequence Graph Cross-Attention Representation Architecture for Molecular Property Prediction” (Molecules, 2024):
Read-outs that look alike come from different tables or passages of the source.

Columns and labels:
HBV = experiment: in vitro validation of anti-HBV capacity (IC50); assay type: cell-based; conditions: Hepatitis B virus, read-out: IC50, In Vitro Validation
Excerpt: (§1) Chronic hepatitis B caused by hepatitis B virus (HBV) is a kind of serious disease. HBV inhibitory drugs are developed from a variety of compounds, and to further explore whether anti-HBV compounds are potentially promising for research, it is necessary to validate their anti-HBV capacity (IC50) and HepG2 hepatocytotoxicity (CC50). We used compounds screened with the fields of target name and target tissue from the CHEMBL database as training data and set the HBV (IC50) concentration and hepatotoxicity concentration (CC50) thresholds at 20 μM (the smaller the IC50 value; the more […]) and 100 μM (higher CC50 concentration indicates lower toxicity), respectively, to convert the compound activity data against the target into binary data for prediction. To validate the reliability of the SG-ATT model, we also used in vitro validation to test the model on IC50 and CC50 to predict the properties of the compounds. Throughout the in vitro validation, we tested the activity data of 100 compounds for IC50 and CC50.
(§2) We counted the model prediction results and listed the top 10 compounds ranked using μM prediction size. The first represents the largest μM, and the 10th represents the smallest μM.

[1] = in vitro validation of HepG2 hepatocytotoxicity (CC50); assay type: cell-based; conditions: human, top 10 compounds ranked by SG-ATT prediction, classification threshold 100 μM
Excerpt: as §1, §2

[2] = anti-HBV capacity, top 10 compounds ranked by SG-ATT prediction, classification threshold 20 μM

Row | Structure (SMILES) | CC50 [1] | IC50 (HBV) | other results
1 | O=C(N[C@H](CO)Cc1ccccc1)/C(=C\c1ccccc1)NC(=O)c1ccccc1F [O=C(N[C@H](CO)CC1=CC=CC=C1)/C(NC(C2=C(F) C=CC=C2)=O)=C\C3=CC=CC=C3] | > 100 µM |  | IC50 (HBV; [2]): > 20 µM
2 | O=C(N[C@H](CO)Cc1ccccc1)/C(=C\c1ccccc1Br)NC(=O)c1ccccc1 [O=C(N[C@H](CO)CC1=CC=CC=C1)/C(NC(C2=CC=CC=C2)=O) =C\C3=CC=CC=C3Br] |  | > 20 µM | 
3 | COc1ccccc1/C(Br)=C(/NC(=O)c1ccc([N+](=O)[O-])cc1)C(=O)N[C@@H](CO)CC(C)C [O=C(N[C@H](CC(C)C)CO)/C(NC(C1=CC=C([N+]([O-])=O) C=C1)=O)=C(Br)\C2=CC=CC=C2OC] | 86.6 µM |  | 
4 | O=C(N/C(C(=O)N1CCCCC1)=C(\Br)c1nccs1)c1ccc(F)cc1 [O=C(N/C(C(N1CCCCC1)=O)=C(Br)/C2=NC=CS2) C(C=C3)=CC=C3F] |  |  | CC50 ([1]; HepG2 cells): > 100 µM
5 | CCN(CC)CCOc1ccc2nc(SCc3ccccc3OC)n(Cc3cccs3)c(=O)c2c1 [O=C1C2=CC(OCCN(CC)CC)=CC=C2N=C (SCC3=C(OC)C=CC=C3)N1CC4=CC=CS4] |  |  | IC50 (HBV; [2]): 1.93 µM
6 | O=C(N[C@H](CO)Cc1ccccc1)/C(NC(=O)c1ccccc1)=C(/Br)c1ccccc1 [Br/C(C1=CC=CC=C1)=C(NC(C2=CC=CC=C2)=O)/ C(N[C@H](CO)CC3=CC=CC=C3)=O] |  | 3.86 µM | 
7 | O=C(N[C@@H](Cc1ccccc1)C(=O)N1CCCCC1)c1ccccc1 [O=C(N1CCCCC1)[C@@H](NC(C2=CC=CC=C2) =O)CC3=CC=CC=C3] |  |  | IC50 (HBV; [2]): > 20 µM
8 | O=C(N[C@H](CO)Cc1ccccc1)/C(NC(=O)c1ccccc1)=C(/Br)c1ccccc1Br [Br/C(C1=CC=CC=C1Br)=C(NC(C2=CC=CC=C2)=O)/ C(N[C@@H](CC3=CC=CC=C3)CO)=O] | > 100 µM |  | 
9 | Cc1cccc(/C=C(/NC(=O)c2ccccc2)C(=O)N[C@H](CO)Cc2ccccc2)c1 [O=C(N[C@H](CO)CC1=CC=CC=C1)/C(NC(C2=CC=CC=C2) =O)=C\C3=CC=CC(C)=C3] | > 100 µM | > 20 µM | 
10 | O=C(N[C@H](CO)Cc1ccccc1)/C(NC(=O)c1ccccc1)=C(/Br)c1ccc(O)cc1 [Br/C(C1=CC=C(O)C=C1)=C(NC(C2=CC=CC=C2)=O)/ C(N[C@H](CO)CC3=CC=CC=C3)=O] | > 100 µM |  | 
11 | CC(C)C(CO)NC(=O)[C@H](Cc1ccc(OCCN(C)C)cc1)NC(=O)c1ccccc1 (some centres unmarked) [O=C(NC(CO)C(C)C)[C@@H](NC(C1=CC=CC=C1)=O)CC2=CC=C(OCCN(C)C)C=C2] |  |  | CC50 ([1]; HepG2 cells): 89.1 µM
12 | N#Cc1ccc(/C(Br)=C(/NC(=O)c2ccccc2)C(=O)N[C@H](CO)Cc2ccccc2)cc1 [Br/C(C1=CC=C(C#N)C=C1)=C(NC(C2=CC=CC=C2)=O)/ C(N[C@@H](CC3=CC=CC=C3)CO)=O] | > 100 µM |  | 
13 | COc1ccccc1/C(Br)=C(/NC(=O)c1ccc([N+](=O)[O-])cc1)C(=O)N[C@@H](CO)C(C)C [Br/C(C1=CC=CC=C1OC)=C(NC(C2=CC=C([N+]([O-]) =O)C=C2)=O)/C(N[C@@H](CO)C(C)C)=O] |  |  | IC50 (HBV; [2]): 2.06 µM
14 | O=C(N[C@H](CO)Cc1ccccc1)/C(=C\c1ccc(Br)cc1)NC(=O)c1ccccc1 [O=C(N[C@H](CO)CC1=CC=CC=C1)/C (NC(C2=CC=CC=C2)=O)=C\C3=CC=C(Br)C=C3] | 72.7 µM |  | 
15 | O=C(N[C@H](CO)Cc1ccccc1)/C(NC(=O)c1ccccc1)=C(/Br)c1ccc(Br)cc1 [Br/C(C1=CC=C(Br)C=C1)=C(NC(C2=CC=CC=C2)=O)/ C(N[C@@H](CC3=CC=CC=C3)CO)=O] |  | 4.45 µM | 
16 | O=C(N[C@H](CO)Cc1ccccc1)/C(=C\c1ccccc1Cl)NC(=O)c1ccccc1 [O=C(N[C@H](CO)CC1=CC=CC=C1)/C(NC(C2=CC=CC=C2)=O) =C\C3=CC=CC=C3Cl] | > 100 µM | > 20 µM | 
17 | O=C(N[C@H](CO)Cc1ccccc1)/C(NC(=O)c1ccccc1)=C(/Br)c1ccccc1Cl [Br/C(C1=CC=CC=C1Cl)=C(NC(C2=CC=CC=C2)=O)/ C(N[C@@H](CC3=CC=CC=C3)CO)=O] |  | 1.88 µM | 
